Columns and labels:
Assay in all cases: Saccharide competition of SP-D binding to BSA-mannan coated plates
[1] = molecular target: T1, pSP-D (Sus scrofa, UniProt Q9N1X4); set-up: species or system porcine
T1 sequence (Q9N1X4 21-378): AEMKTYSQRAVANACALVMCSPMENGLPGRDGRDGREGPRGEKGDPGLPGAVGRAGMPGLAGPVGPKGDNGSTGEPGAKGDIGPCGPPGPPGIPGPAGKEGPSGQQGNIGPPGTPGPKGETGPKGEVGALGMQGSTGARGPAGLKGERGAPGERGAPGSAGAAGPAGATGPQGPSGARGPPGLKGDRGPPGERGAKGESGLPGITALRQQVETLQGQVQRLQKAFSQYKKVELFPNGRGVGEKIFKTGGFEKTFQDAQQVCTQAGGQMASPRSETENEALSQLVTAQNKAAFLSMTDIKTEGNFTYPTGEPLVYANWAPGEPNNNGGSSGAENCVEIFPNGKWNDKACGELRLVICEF

[2] = molecular target: T2, hSP-D (Homo sapiens, UniProt P35247)
T2 construct: The full-length recombinant collectins pSP-D and hSP-D were constructed as published; made in house; host or cells: HEK293 (HEK293E, transient transfection)
T2 sequence (P35247 21-375): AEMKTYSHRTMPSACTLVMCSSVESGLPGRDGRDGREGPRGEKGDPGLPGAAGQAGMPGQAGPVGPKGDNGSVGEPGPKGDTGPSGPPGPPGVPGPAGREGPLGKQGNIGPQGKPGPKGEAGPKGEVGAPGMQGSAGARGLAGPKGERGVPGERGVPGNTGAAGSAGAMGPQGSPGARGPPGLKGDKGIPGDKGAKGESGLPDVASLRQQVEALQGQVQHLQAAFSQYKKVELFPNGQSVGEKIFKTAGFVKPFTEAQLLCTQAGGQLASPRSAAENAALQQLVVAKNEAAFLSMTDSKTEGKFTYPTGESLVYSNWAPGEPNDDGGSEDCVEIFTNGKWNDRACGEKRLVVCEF

[3] = molecular target: T3, iSP-D (Homo sapiens, UniProt P35247, D344N/D350N/E309K/INS346GSS/K307Q/V271E)
T3 construct: Full-length recombinant iSP-D was generated based upon the full-length hSP-D cDNA clone; made in house; host or cells: HEK293 (HEK293E, transient transfection)
T3 sequence (P35247 with tags, fused parts or gaps V271E/K307Q/E309K/D344N/INS346GSS/D350N): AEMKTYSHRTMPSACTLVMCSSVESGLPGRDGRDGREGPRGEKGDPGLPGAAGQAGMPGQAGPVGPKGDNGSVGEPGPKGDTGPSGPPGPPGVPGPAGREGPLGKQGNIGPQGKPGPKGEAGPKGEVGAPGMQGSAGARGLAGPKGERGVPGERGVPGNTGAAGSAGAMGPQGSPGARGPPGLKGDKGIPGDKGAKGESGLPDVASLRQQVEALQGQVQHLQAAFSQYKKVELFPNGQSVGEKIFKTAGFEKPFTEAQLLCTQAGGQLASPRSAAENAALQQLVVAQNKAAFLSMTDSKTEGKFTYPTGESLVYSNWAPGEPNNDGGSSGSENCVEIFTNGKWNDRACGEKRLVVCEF

## OC[C@H]1OC(O)[C@H](O)[C@@H](O)[C@@H]1O (stereo partly drawn) [D-Glucose, D-glucose]
[1]
  IC50: 2.8 mM
[2]
  IC50: 4.6 mM
[3]
  IC50: 7.8 mM

## O=C(CO)[C@@H](O)[C@H](O)[C@H](O)CO [Fructose, fructose]
[1]
  IC50: 2.8 mM
[2]
  IC50: 3.1 mM
[3]
  IC50: 4.8 mM

## O=C[C@H](O)[C@@H](O)[C@@H](O)[C@H](O)CO [D-Galactose, D-galactose]
[1]
  IC50: 6.5 mM
[2]
  IC50: 13.5 mM
[3]
  IC50: 13.6 mM

## CC(=O)N[C@@H]1C(O)O[C@H](CO)[C@@H](O)[C@@H]1O (stereo partly shown) [ManNAc, N-acetylmannosamine]
[1]
  IC50: 8 mM
[2]
  IC50: 2.2 mM
[3]
  IC50: 3.1 mM

## O[C@H]1[C@H](O)[C@@H](O)[C@H](O)[C@@H](O)[C@H]1O [Myo-Inositol, myo-inositol]
[3]; ratio of IC50 for inhibition of binding to BSA-mannan
  IC50-value with iSP-D as compared to hSP-D: three times higher

From article PMC6842947, “Enhanced Antiviral Activity of Human Surfactant Protein D by Site-Specific Engineering of the Carbohydrate Recognition Domain” (Frontiers in Immunology, 2019)
